Measured values taken from patent US20230320996A1, “NANOPARTICLES AND METHODS OF MANUFACTURE THEREOF” (Hillstream BioPharma, Inc., priority 2020, published 2023).

Columns and labels:
[1] = test system: BALB/c mice; assay: Maximum tolerated dose, body weight reduction as response; type: in vivo; conditions: intravenously
Experimental: Next, the maximum tolerated dose of salinomycin and salinomycin-loaded PLA based hybrid block copolymeric salinomycin nanoparticle was probed in BALB/c mice. Mice were administered the salinomycin loaded hybrid block copolymeric nanoparticles once a week for 3 weeks. The body weight reduction was observed as a phenotypic response. The dose-response of salinomycin and the salinomycin nanoparticle was observed by administration intraperitoneally (FIG. 7) and intravenously (FIG. 8). For intraperitoneal administration, mice were administered salinomycin and salinomycin loaded nanoparticles at 5 mg/kg, 7.5 mg/kg, 10 mg/kg. Further, only the salinomycin nanoparticles were administered at 12 mg/kg and 15 mg/kg, intraperitoneally. Three mice were probed at each dose for salinomycin and salinomycin loaded nanoparticle. For intravenous administration, mice were administered salinomycin and salinomycin loaded nanoparticles at 5 mg/kg. Only salinomycin nanoparticles were administered at 1 mg/kg, and 7.5 mg/kg. Further another group of salinomycin at 2.5 mg/kg was also tested. Three mice were probed at each dose for salinomycin and salinomycin loaded nanoparticle. It was observed that free salinomycin was tolerated up to a dose of 10 mg/kg and the salinomycin loaded nanoparticle was tolerated up to 15 mg/kg, when administered intraperitoneally. […]

[2] = test system: MCF-7 cells; assay: Inhibition of cell proliferation; type: cell-based; conditions: Homo sapiens, MCF7; 5000 cells per well, 0.01-100 μM, 72 hours
Experimental: (§1) Next, the potency of inhibition of salinomycin-induced cell growth was probed by comparing the inhibition with salinomycin and salinomycin nanoparticle in MCF-7, MDA-MB 231 and MDA-MB 468 cell lines. […] (see FIG. 6A, B, C). MCF-7 cells at concentration of 5000 cells per well were treated with salinomycin or salinomycin nanoparticles from a concentration of 0.01-100 μM respectively for 72 hours. […] MDA-MB 468 cells at concentration of 5000 cells per well were treated with salinomycin or salinomycin nanoparticles from a concentration of 0.01-100 μM respectively for 72 hours. […] MDA-MB 231 cells at concentration of 5000 cells per well were treated with salinomycin or salinomycin nanoparticles from a concentration of 0.01-100 μM respectively for 72 hours.

[3] = test system: MDA-MB 231 cells; assay: Inhibition of cell proliferation; type: cell-based; conditions: Homo sapiens, 5000 cells per well, 0.01-100 μM, 72 hours
Experimental: as §1

[4] = test system: MDA-MB 468 cells; assay: Inhibition of cell proliferation; type: cell-based; conditions: Homo sapiens, 5000 cells per well, 0.01-100 μM, 72 hours
Experimental: as §1

CC[C@@H](C(=O)[C@@H](C)[C@@H](O)[C@H](C)[C@@H]1O[C@@H]([C@@H](CC)C(=O)O)CC[C@@H]1C)[C@H]1O[C@]2(C=C[C@@H](O)[C@]3(CC[C@@](C)([C@H]4CC[C@](O)(CC)[C@H](C)O4)O3)O2)[C@H](C)C[C@@H]1C [salinomycin]
lethal dose [1]: 5 mg/kg
IC50 [2]: 2.27 µM
IC50 [3]: 3.46 µM
IC50 [4]: 1.47 µM
